Drawing on patent publication US20130204033A1, “ANTIPROLIFERATIVE COMPOUNDS, CONJUGATES THEREOF, METHODS THEREFOR, AND USES THEREOF” (Medarex, Inc., priority 2009, published 2013), this text covers EC50 for three molecules.

Type in all cases: cell-based, human
Assay [1] concerns U-87 MG. The assay can be described thus: 3H thymidine proliferation assay, U-87 MG. As to conditions: Homo sapiens, U-87 MG, read-out: EC50, U-87 MG, 3H thymidine method, 72 h incubation. The essentials: (§1)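 Tumour cells were plated at 1.0×10^4 per well and, after 3 h, treated with threefold serial dilutions of compound or conjugate. Total incubation was 72 h, with a 1.0 μCi ^3H-thymidine pulse over the last 24 h. Counts gave the 50% inhibition concentration (EC50).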

The subject of a further assay is UO-31. Nature of the assay: ATP luminescence proliferation assay, UO-31. The conditions noted are these: Homo sapiens, UO-31, 48 h, read-out: EC50 UO-31 (48 h), ATP luminescence, UO-31, 48 h incubation. As for the experimental part: (§2) This example generally describes the procedures used to assay the antiproliferative activity of compounds of this invention or their conjugates. Human tumor cell lines were obtained from the American Type Culture Collection (ATCC), P.O. Box 1549, Manassas, Va. 20108, USA, and cultured according to instruction from the ATCC. Cells were seeded at 1.0×10^3 or 1.0×10^4 cells/well in 96-well plates for 3 h for ATP assays or ^3H thymidine assays, respectively. 1:3 serial dilutions of free (unconjugated) compounds or their conjugates were added to the wells. Plates were allowed to incubate for 24 to 72 h. The ^3H thymidine plates were pulsed with 1.0 μCi of ^3H-thymidine per well for the last 24 hours of the total incubation period, harvested, and read on a Top Count Scintillation Counter (Packard Instruments, Meriden, Conn.). ATP levels in the ATP plates were measured using the […]-GLO® Luminescent Cell Viability kit following the manufacturer's manual and read on a GLOMAX® 20/20 luminometer (both from Promega, Madison, Wis., USA). The EC50 values—the concentration at which an agent inhibits or reduces cell proliferation by 50% —were determined using PRISM™ software, version 4.0 (GraphPad Software, La Jolla, Calif., USA).
(§3) Using the ^3H thymidine or the ATP luminescence assay, or both, the activities of compounds of this invention were assayed against the following cancer cell lines: HCT-15 (colorectal cancer, multi-drug resistant (MDR)); Hep3B (liver cancer); LNCaP (prostate cancer, androgen receptor positive (AR^+)); MDA-MB-231 (breast cancer, estrogen receptor, progesterone receptor, and Her2 negative (triple negative)); A2058 (melanoma); U-87 MG (glioblastoma); NCI-H460 (NSCLC); A549 (NSCLC); HPAC (pancreatic cancer, primary); PC3 (prostate cancer, AR); BT474 (breast cancer, Her2 highly positive (Her2hi)); SKOV3 (ovarian cancer, Her2hi); 786-O (renal cancer); UO-31 (renal cancer, MDR); NCI-H740 (SCLC); DMS53 (SCLC); SK-BR3 (breast cancer, Her2hi); ZR-75 (breast cancer, estrogen receptor positive); OVCAR3 (ovarian cancer); HL-60 (APL); OVCAR8/Adr (ovarian cancer, MDR); CEM-Cl (ALL); Nomo-1 (AML); RPMI-8226 (MM)); Raji (lymphoma); SW-480 (colorectal cancer, metastatic); SW-620 (colorectal cancer); and H226 (lung cancer). (Not all compounds were assayed against all cell lines.)
(§4) Table 3 provides the data for the ATP luminescence proliferation assays, with an incubation period of 48, 72, or 96 h, as noted.

In another assay the test system is Raji. Nature of the assay: ATP luminescence proliferation assay, Raji. As to conditions: Homo sapiens, 72 h, read-out: EC50 Raji (72 h), ATP luminescence, Raji, 72 h incubation. As for the experimental part: as §2, §3, §4
The next assay deals with SK-BR3. The assay can be described thus: 3H thymidine proliferation assay, SK-BR3. As to conditions: Homo sapiens, SK-BR-3; 3H thymidine method, 72 h incubation. Summed up:
as §1

The next assay has as its system NCI-H460. The assay can be described thus: ATP luminescence proliferation assay, NCI-H460. The conditions noted are these: Homo sapiens. As for the experimental part: as §2, §3, §4
For the next assay, the system named is DMS53. The assay can be described thus: ATP luminescence proliferation assay, DMS53. The conditions noted are these: Homo sapiens. As for the experimental part:
as §2, §3, §4

The test system of assay [2] is SKOV3. Nature of the assay: 3H thymidine proliferation assay, SKOV3. As to conditions: Homo sapiens, SK-OV-3, read-out: EC50, SKOV3, 3H thymidine method, 72 h incubation. Summed up:
as §1

For another assay, the system named is CEM-C1. Nature of the assay: 3H thymidine proliferation assay, CEM-C1. The conditions noted are these: Homo sapiens, CEM/C1, read-out: EC50, CEM-C1, 3H thymidine method, 72 h incubation. The essentials: as §1
In assay [3] the test system is SKOV3. The assay can be described thus: ATP luminescence proliferation assay, SKOV3. As to conditions: Homo sapiens. As to the method:
as §2, §3, §4

A further assay relates to Nomo-1. Nature of the assay: ATP luminescence proliferation assay, Nomo-1. As to conditions: Homo sapiens. As for the experimental part:
as §2, §3, §4

Another assay concerns RPMI-8226. Nature of the assay: 3H thymidine proliferation assay, RPMI-8226. The conditions noted are these: Homo sapiens, RPMI-8226, read-out: EC50, RPMI-8226, 3H thymidine method, 72 h incubation. The essentials:
as §1

For assay [4], the system named is U-87 MG. Nature of the assay: ATP luminescence proliferation assay, U-87 MG. The conditions noted are these: Homo sapiens, 72 h, read-out: EC50 U-87 MG (72 h), ATP luminescence, U-87 MG, 72 h incubation. As to the method: as §2, §3, §4
A further assay relates to SW-480. The assay can be described thus: ATP luminescence proliferation assay, SW-480. The conditions noted are these: Homo sapiens, SW480, 96 h, read-out: EC50 SW480 (96 h), ATP luminescence, SW480, 96 h incubation. As for the experimental part:
as §2, §3, §4

The next assay relates to 786-O. The assay can be described thus: ATP luminescence proliferation assay, 786-O. The conditions noted are these: Homo sapiens, 786-0, 72 h, read-out: EC50 786-O (72 h), ATP luminescence, 786-O, 72 h incubation. The essentials: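 Read-out: luminescent ATP cell viability after 48, 72 or 96 h incubation, as noted, with 1:3 serial dilutions of unconjugated compounds or their conjugates. Plating was 1.0×10^3 cells/well, 3 h before dosing. EC50 = concentration giving 50% inhibition of proliferation.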

The next assay concerns PC3. Nature of the assay: ATP luminescence proliferation assay, PC3. The conditions noted are these: Homo sapiens, PC-3, 48 h, read-out: EC50 PC3 (48 h), ATP luminescence, PC3, 48 h incubation. As to the method:
as §2, §3, §4

The next assay deals with ZR-75. The assay can be described thus: 3H thymidine proliferation assay, ZR-75. The conditions noted are these: Homo sapiens, ZR75, read-out: EC50, ZR-75, 3H thymidine method, 72 h incubation. Summed up: as §1
In the next assay the test system is LNCaP. The assay can be described thus: 3H thymidine proliferation assay, LNCaP. As to conditions: Homo sapiens, LNCaP, read-out: EC50, LNCaP, 3H thymidine method, 72 h incubation. The essentials: as §1
The subject of another assay is HPAC. The assay can be described thus: 3H thymidine proliferation assay, HPAC. The conditions noted are these: Homo sapiens, HPAC, read-out: EC50, HPAC, 3H thymidine method, 72 h incubation. The essentials:
as §1

Setting [5] is: NCI-H460, 72 h, read-out: EC50 NCI-H460 (72 h), ATP luminescence, NCI-H460, 72 h incubation.
Setting [6] is: DMS-53, 48 h, read-out: EC50 DMS53 (48 h), ATP luminescence, DMS53, 48 h incubation.
The mark [7] stands for this setting: SK-OV-3, 72 h, read-out: EC50 SKOV3 (72 h), ATP luminescence, SKOV3, 72 h incubation.
[8] abbreviates: NOMO-1, 72 h, read-out: EC50 Nomo-1 (72 h), ATP luminescence, Nomo-1, 72 h incubation.

Like-named read-outs stand apart in the source and are kept apart here.

The term EC50 denotes the concentration that produces a half-maximal response. Consider `CC[C@H](C)[C@H](NC(=O)[C@H]1CCCCN1C)C(=O)N(C)[C@H](C[C@@H](OC)c1nc(C(=O)N[C@H](CC(=O)OC)Cc2ccccc2)cs1)C(C)C` [Compound 25], for which the EC50 in the assay on U-87 MG [1] was 271 nM; with UO-31, 759 nM; in the assay on Raji it was 209 nM; in the assay on SK-BR3 it was 1710 nM; in the assay on NCI-H460 (setting [5]) it was 177 nM; with DMS53 (setting [6]), 366 nM. Besides, the EC50 in the assay with SKOV3 [2] was determined as 180 nM; in the assay on CEM-C1, 225 nM; with SKOV3 [3] (setting [7]), 109 nM; with Nomo-1 (NOMO-1, 48 h, read-out: EC50 Nomo-1 (48 h), ATP luminescence, Nomo-1, 48 h incubation), 83 nM; in the assay on RPMI-8226, 396 nM; in the assay with U-87 MG [4], 357 nM. In addition, the EC50 in the assay with SW-480 is 261 nM; in the assay on 786-O, 306 nM; in the assay with PC3 it was 155 nM; with ZR-75, greater than 3000 nM; in the assay on LNCaP, 930 nM; in the assay on HPAC it was 206 nM.
As to `CCCC(NC(=O)c1csc([C@@H](C[C@H](C(C)C)N(C)C(=O)[C@@H](NC(=O)[C@H]2CCCCN2C)[C@@H](C)CC)OC)n1)C(=O)OC` (stereo partly drawn) [Compound 17], the concentration giving a half-maximal response (EC50) with U-87 MG [1] was 12 nM; with UO-31, greater than 100 nM; with Raji, 27 nM; with SK-BR3, greater than 100 nM; in the assay on NCI-H460 (NCI-H460, 48 h, read-out: EC50 NCI-H460 (48 h), ATP luminescence, NCI-H460, 48 h incubation) it was 69 nM; with DMS53 (setting [6]) it was roughly 80 nM. The EC50 in the assay on SKOV3 [2] was determined as 91 nM; in the assay on CEM-C1, 43 nM; with SKOV3 [3] (SK-OV-3, 48 h, read-out: EC50 SKOV3 (48 h), ATP luminescence, SKOV3, 48 h incubation), 58 nM; in the assay on Nomo-1 (setting [8]), 3.9 nM; in the assay with RPMI-8226, 47 nM; in the assay on U-87 MG [4], 22 nM. Further, the EC50 is 92 nM in the assay on SW-480; 73 nM in the assay on 786-O; greater than 100 nM in the assay on PC3; greater than 100 nM in the assay with ZR-75; greater than 100 nM in the assay with LNCaP; greater than 100 nM in the assay with HPAC.
As to `CC[C@H](C)[C@H](NC(=O)[C@H]1CCCCN1C)C(=O)N(C)[C@H](C[C@@H](OC)c1nc(C(=O)N[C@@H](Cc2ccccc2)C(=O)N[C@@H](C)C(=O)OC)cs1)C(C)C` [Compound 24], the EC50 with U-87 MG [1] is 18 nM; with UO-31, 13 nM; with Raji, 7.9 nM; in the assay with SK-BR3, greater than 100 nM; in the assay on NCI-H460 (setting [5]), 23 nM; in the assay with DMS53 (DMS-53, 72 h, read-out: EC50 DMS53 (72 h), ATP luminescence, DMS53, 72 h incubation), greater than 100 nM. The EC50 in the assay on SKOV3 [2] came out at 68 nM; in the assay on CEM-C1, 13 nM; with SKOV3 [3] (setting [7]) it was 13 nM; in the assay with Nomo-1 (setting [8]), 4 nM; in the assay with RPMI-8226, 17 nM; in the assay on U-87 MG [4], 18 nM. Further, the EC50 in the assay on SW-480 is 42 nM; with 786-O, 36 nM; with PC3, 13 nM; in the assay with ZR-75, 3.6 nM; with LNCaP it was 76 nM; in the assay with HPAC, greater than 100 nM.
